Measurements taken from patent US5637770A (priority 1991, dated 1997).
In brackets after ≈: the same amount, converted by molar mass. Read-outs that look alike come from different tables or passages of the source.

Assays:
[1] = system: P388 murine leukemia cells; assay: MTT cytotoxicity test on P388 murine leukemia cells (Table 1); type: cell-based; settings: 3 days
Protocol: P388 murine leukemia cells were spread over a 96-well microplate, 2.5×10^3 cells per well. A sample to be tested was added after 24 hours. Cells were cultivated under the conditions of 5% CO2 at 37° C. for 3 days. 3-(4,5-Dimethylthiazol-2-yl)-2,5-diphenyl-2H-tetrazolium bromide (MTT) was added 4 hours after the addition of the sample. Upon the addition of […] of isopropyl alcohol containing 0.04N HCl the absorption at 540 nm was measured to determine IC50.

[2] = system: HOC-21 (Ovary); assay: In vitro anti-proliferative activity, HOC-21 (Table 2-2); type: cell-based; settings: Homo sapiens, read-out: in vitro anti-proliferative activity (Gl50)
Protocol: (§1) In vitro anti-proliferative activities of the drugs against 4 human and 1 murine cell lines were measured by the MTT assay (see page 11 of the parent specification) after 3 days incubation, and expressed as the doses required to inhibit growth of 50% cells cultivated (Gl50, ng/ml).

[3] = system: p388 (Mouse leukemia); assay: In vitro anti-proliferative activity, p388 (Table 2-2); type: cell-based; settings: read-out: in vitro anti-proliferative activity (Gl50)
Protocol: as §1

[4] = system: P388 murine leukemia cells; assay: MTT method, activity on p388 cells (Table 2-1); type: cell-based; settings: Mus musculus
Protocol: (§2) See page 11 of the parent specification. In detail, p388 murine leukemia cells, MKN 28 (human stomach cancer cells), QG56 (human lung cancer cells) and HOC21 (human ovarian cancer cells) were provided. The cells were spread over a 96-well microplate, respectively, and a sample to be tested was added to each of them after 24 hours. Cells were cultivated under the conditions of 5% CO2 at 37° C. for 3 days.
(§3) 3-(4,5-Dimethylthiazol-2-yl)-2,5-diphenyl-2H-tetrazolium bromide (abbriviated as MTT) was added thereto 4 hours after the addition of the sample. Upon the addition of […] of isopropyl alcohol containing 0.04N HCl, the absorption at 540 nm was measured To determine IC50.

[5] = Acute toxicity in mice; type: in vivo; settings: i.v., male BALB/c mice, survival on day 14, Probit method
Protocol: Groups of 5 male BALB/c mice were administered intravenously with several doses of drugs, and their survivals from death were recorded up to day 14. The 10 and 50% lethal doses (LD10 and LD50) were calculated form the survival rate on day 14 by the Probit method.

[6] = molecular target: T1, topoisomerase I (Mus musculus, UniProt Q04750); assay: Topoisomerase I assay, relaxation of supercoiled SV40 DNA; type: biochemical, p388 mouse leukemia
T1 construct: Topoisomerase I was prepared from p388 mouse leukemia; endogenous in cells; host or cells: P388 mouse leukemia
T1 sequence (Q04750 1-767): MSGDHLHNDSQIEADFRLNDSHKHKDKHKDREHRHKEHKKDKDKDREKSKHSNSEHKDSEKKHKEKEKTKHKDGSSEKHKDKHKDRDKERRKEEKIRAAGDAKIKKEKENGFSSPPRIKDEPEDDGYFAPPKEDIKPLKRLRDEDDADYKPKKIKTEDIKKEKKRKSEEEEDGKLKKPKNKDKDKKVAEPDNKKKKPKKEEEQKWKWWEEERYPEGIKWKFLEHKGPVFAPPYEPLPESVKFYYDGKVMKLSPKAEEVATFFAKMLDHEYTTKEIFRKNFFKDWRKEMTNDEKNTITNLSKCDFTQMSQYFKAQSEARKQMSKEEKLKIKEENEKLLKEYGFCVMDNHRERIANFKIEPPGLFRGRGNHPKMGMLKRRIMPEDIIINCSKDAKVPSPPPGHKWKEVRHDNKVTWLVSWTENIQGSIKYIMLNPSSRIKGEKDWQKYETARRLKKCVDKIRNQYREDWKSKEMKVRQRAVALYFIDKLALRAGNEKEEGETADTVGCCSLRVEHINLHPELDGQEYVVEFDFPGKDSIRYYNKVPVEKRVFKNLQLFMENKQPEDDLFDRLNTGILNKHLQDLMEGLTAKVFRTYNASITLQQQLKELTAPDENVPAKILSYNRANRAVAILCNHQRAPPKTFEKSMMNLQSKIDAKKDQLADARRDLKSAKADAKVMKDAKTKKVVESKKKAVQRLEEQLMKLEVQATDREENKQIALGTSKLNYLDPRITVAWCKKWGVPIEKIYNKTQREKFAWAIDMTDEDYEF
Protocol: Topoisomerase I was prepared from p388 mouse leukemia. One unit (the minimum amount of full relaxation of 0.5 μg SV40 DNA) of topoisomerase I,
0.5 μl of the test compounds, and 0.5 μg of SV40 DNA were added sequentially to the reaction buffer. The reaction mixture (50 μl) was incubated for 10 min and 37° C. and analyzed by electrophoresis, the gel was stained with 0.05% ethydium bromide and photographed with UV light. The DNA was quantified using a densitometor. The inhibition rate of the topoisomerase activity was calculated as [formula] where Frt and Frc are ratios of relaxed DNA to total DNA treated with topoisomerase in the presence and absence of the test drug, respectively. Fr is the proportion of relaxed DNA in untreated DNA. The IC50 of each test drug was estimated from the dose-response.

[7] = system: HOC21 (human ovarian cancer cells); assay: MTT method, activity on HOC21 cells (Table 2-1); type: cell-based; settings: HOC-21, 72 h
Protocol: as §2, §3

[8] = system: MKN28 (Stomach); assay: In vitro anti-proliferative activity, MKN28 (Table 2-2); type: cell-based; settings: Homo sapiens, MKN-28, 72 h, read-out: in vitro anti-proliferative activity (Gl50)
Protocol: as §1

[9] = system: MKN 28 (human stomach cancer cells); assay: MTT method, activity on MKN28 cells (Table 2-1); type: cell-based; settings: MKN-28, 72 h
Protocol: as §2, §3

[10] = system: QG90 (Lung); assay: In vitro anti-proliferative activity, QG90 (Table 2-2); type: cell-based; settings: Homo sapiens, QG-90, 72 h, read-out: in vitro anti-proliferative activity (Gl50)
Protocol: as §1

[11] = system: MCF-7 (Breast); assay: In vitro anti-proliferative activity, MCF-7 (Table 2-2); type: cell-based; settings: Homo sapiens, MCF7, 72 h, read-out: in vitro anti-proliferative activity (Gl50)
Protocol: as §1

[12] = system: 4 human and 1 murine cell lines; assay: In vitro anti-proliferative activity, mean over the cell lines (Table 2-2); type: cell-based; settings: read-out: in vitro anti-proliferative activity (Gl50), MEAN
Protocol: as §1

[13] = system: Meth A fibrosarcoma; assay: In vivo anti-tumor activity, Meth A fibrosarcoma in BALB/c mice (Table 3); settings: i.v.; for Death Nos.: qd×4; for Tumor cell anti-proliferative activity: qd×4 (days 5-8), day 14
Protocol: In vivo anti-tumor activities of drugs were assayed with Meth A fibrosarcoma in BALB/c mice. Mice were treated intravenously with several doses of drugs on days 5, 6, 7, and 8 (qd×4) after hypodermic tumor implantation, and the weight of the tumor masses measured on day 14. The anti-tumor activities of drugs against the tumor were expressed as the relative tumor weight of controls (%).

[14] = system: QG56 (human lung cancer cells); assay: MTT method, activity on QG56 cells (Table 2-1); type: cell-based; settings: QG-56, 72 h
Protocol: as §2, §3

[15] = clinical tests in the United States; cited from earlier work
[16] = system: nucleic acid synthesis; settings: background statement; cited from earlier work
[17] = 72 h, HOC-21 (Ovary), MTT, 3 days incubation
[18] = 72 h, p388 (Mouse leukemia), MTT, 3 days incubation
[19] = MKN28 (Stomach), MTT, 3 days incubation
[20] = QG90 (Lung), MTT, 3 days incubation
[21] = MCF-7 (Breast), MTT, 3 days incubation

CC[C@@]1(O)C(=O)OCc2c1cc1n(c2=O)Cc2c-1nc1cccc3c1c2C(N)CC3.Cl (single isomer, unassigned) [Example 2 (Isomer A)]
IC50 ([1]; hydrochloride): 3.38 ng/mL

CC[C@@]1(O)C(=O)OCc2c1cc1n(c2=O)Cc2c-1nc1cccc3c1c2C(N)CC3.Cl (single isomer, unassigned) [Example 2 (Isomer B)]
IC50 ([1]; hydrochloride): 12.40 ng/mL

CC[C@@]1(O)C(=O)OCc2c1cc1n(c2=O)Cc2c-1nc1cc(F)c(C)c3c1c2C(N)CC3.Cl (stereo partly drawn) [DX-8951, (9S)-1-amino-9-ethyl-5-fluoro-2,3-dihydro-9-hydroxy-4-methyl-1H,12H-benzo[de]pyrano[3',4':6,7]indolizino[1,2-b]quinoline-10,13(9H,15H)-dione hydrochloride]
IC50 ([2]; HOC-21, 72 h): 3.67 ng/mL | IC50 ([3]; Mus musculus, P388, 72 h): 1.06 ng/mL | IC50 ([4]; P388, 72 h): 0.58 ng/mL | LD10 [5]: 228 mg/m^2 | LD50 [5]: 270 mg/m^2 | IC50 [6]: 1.12 µM | IC50 [7]: 12.8 ng/mL | IC50 [8]: 1.75 ng/mL | IC50 [9]: 9.4 ng/mL | IC50 [10]: 0.66 ng/mL | IC50 [11]: 0.16 ng/mL | IC50 [12]: 1.46 ng/mL | Death Nos. ([13]; total dose 1.875 mg/kg): 0/6 | Tumor cell anti-proliferative activity ([13]; total dose 1.875 mg/kg): 72.5% | Death Nos. ([13]; total dose 3.75 mg/kg): 0/6 | Tumor cell anti-proliferative activity ([13]; total dose 3.75 mg/kg): 78.3% | Death Nos. ([13]; total dose 7.5 mg/kg): 0/6 | Tumor cell anti-proliferative activity ([13]; total dose 7.5 mg/kg): 87.5% | Death Nos. ([13]; total dose 15 mg/kg): 0/6 | Tumor cell anti-proliferative activity ([13]; total dose 15 mg/kg): 96.6% | Death Nos. ([13]; total dose 30 mg/kg): 2/6 | Tumor cell anti-proliferative activity ([13]; total dose 30 mg/kg): 96.4% | IC50 [14]: 0.67 ng/mL

CC[C@@]1(O)C(=O)OCc2c1cc1n(c2=O)Cc2c-1nc1ccc(OC)c3c1c2C(N)CC3.Cl (single isomer, unassigned) [Example 4 (Isomer B)]
IC50 ([1]; hydrochloride): 27.80 ng/mL

CC[C@@]1(O)C(=O)OCc2c1cc1n(c2=O)Cc2c-1nc1ccc(OC)c3c1c2CCC3N.Cl (single isomer, unassigned) [Example 7 (Isomer A)]
IC50 ([1]; Mus musculus, P388, 72 h, read-out: IC50): 11.4 ng/mL

CC[C@@]1(O)C(=O)OCc2c1cc1n(c2=O)Cc2cc3ccccc3nc2-1 [camptohecin, camptothecin]
safety in clinical tests [15]: problem in view of safety | IC50 [6]: 43.9 µM | antitumor activity [16]: exhibit an antitumor activity

CCc1c2c(nc3ccc(O)cc13)-c1cc3c(c(=O)n1C2)COC(=O)[C@]3(O)CC [SN-38, 7Ethyl-10-hydroxycamptothecin]
IC50 [2, 17]: 21.4 ng/mL (≈ 0.0544 µM) | IC50 [3, 18]: 3.22 ng/mL (≈ 0.00821 µM) | IC50 ([4]; 72 h, p388, MTT, 3 days, read-out: IC50): 1.33 ng/mL (≈ 0.00339 µM) | IC50 ([6]; SV40 DNA, 10 min, 37° C., read-out: Inhibition of topoisomerase I-induced relaxation of supercoiled DNA (IC50) (converted)): 3.57 µM | IC50 ([7]; HOC21, MTT, 3 days, read-out: IC50): 53.2 ng/mL (≈ 0.136 µM) | IC50 [8, 19]: 21.7 ng/mL (≈ 0.0552 µM) | IC50 ([9]; MKN28, MTT, 3 days, read-out: IC50): 61 ng/mL (≈ 0.155 µM) | IC50 [10, 20]: 1.43 ng/mL (≈ 0.00364 µM) | IC50 [11, 21]: 0.49 ng/mL (≈ 0.00125 µM) | IC50 ([12]; mean of the 5 cell lines): 9.63 ng/mL (≈ 0.0245 µM) | IC50 ([14]; QG56, MTT, 3 days, read-out: IC50): 2.46 ng/mL (≈ 0.00627 µM)

CC[C@@]1(O)C(=O)OCc2c1cc1n(c2=O)Cc2c-1nc1ccc(OC)c3c1c2CCC3N.Cl (single isomer, unassigned) [Example 7 (Isomer B)]
IC50 ([1]; hydrochloride): 11.90 ng/mL

CCc1c2c(nc3ccc(OC(=O)N4CCC(N5CCCCC5)CC4)cc13)-c1cc3c(c(=O)n1C2)COC(=O)[C@]3(O)CC [CPT-11, irinotecan]
IC50 [2, 17]: 15100 ng/mL (≈ 25.7 µM) | IC50 [3, 18]: 2850 ng/mL (≈ 4.86 µM) | LD10 [5]: 198 mg/m^2 | LD50 [5]: 270 mg/m^2 | IC50 [8, 19]: 8690 ng/mL (≈ 14.8 µM) | IC50 [10, 20]: 1550 ng/mL (≈ 2.65 µM) | IC50 [11, 21]: 1200 ng/mL (≈ 2.04 µM) | IC50 ([12]; mean of the 5 cell lines): 5870 ng/mL (≈ 10 µM) | Death Nos. ([13]; total dose 25 mg/kg): 0/6 | Tumor cell anti-proliferative activity ([13]; total dose 25 mg/kg): 31.4% | Death Nos. ([13]; total dose 50 mg/kg): 0/6 | Tumor cell anti-proliferative activity ([13]; total dose 50 mg/kg): 53.3% | Death Nos. ([13]; total dose 100 mg/kg): 0/6 | Tumor cell anti-proliferative activity ([13]; total dose 100 mg/kg): 62.3% | Death Nos. ([13]; total dose 200 mg/kg): 0/6 | Tumor cell anti-proliferative activity ([13]; total dose 200 mg/kg): 79.4%

CC[C@@]1(O)C(=O)OCc2c1cc1n(c2=O)Cc2c-1nc1ccc(OC)c3c1c2C(N)CC3.Cl (single isomer, unassigned) [Example 4 (Isomer A)]
IC50 ([1]; hydrochloride): 9.21 ng/mL
